# Source: patent US7612064B2, “Sulfopyrroles” (Takeda Pharmaceutical Company Limited, priority 2003, dated 2009)
# How the values were obtained:
# [1] = Hoechst 33342 nuclear staining; format: cell-based; details: for Hoechst 33342 nuclear staining score, H460: H460 cells; for Hoechst 33342 nuclear staining score, HeLa: HeLa cells; for Hoechst 33342 nuclear staining score, Jily: Jily cells; for Hoechst 33342 nuclear staining score, Jurkat: Jurkat cells; for Hoechst 33342 nuclear staining score, MRC5: MRC5 cells;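 on all read-outs here: apoptotic nuclei scored 0 none 1 weak under 50% of cells 2 strong over 50% of cells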
# How it was run: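 Cells were plated in 96 well tissue culture plates in 80 μl complete medium, with 3-5*10^3 cells per well for adherent lines and 8-10*10^3 for suspension lines. Adherent cells spread for 24 h before treatment, while suspension cells were treated right after seeding. Compounds were added in 20 μl complete medium containing max 5% DMSO.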
# MRC5 = assay: MTS proliferation assay; format: cell-based; details: MRC5, 72 h
# How it was run: (§1)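 Compounds at final 10/3/1/0.3 μM (added in complete medium, ≤5% DMSO); 72 h, culture conditions; + MTS, 3 h; A492.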
# Jurkat [2] = assay: MTS proliferation assay; format: cell-based, human; details: 72 h
# How it was run: as §1
# HeLa [3] = assay: MTS proliferation assay; format: cell-based, human; details: 72 h
# How it was run: as §1
# Jurkat [4] = assay: PI staining for cell cycle distribution; format: cell-based, human; design: key: 0: no effect; 1: weak effect; 2: strong effect; details: Jurkat 3μM, 48 h
# Description: (§2) 1-2*10^5 cells are seeded into 24 well tissue culture plates and incubated for 24 h prior to compound addition. […] Adherent cells are harvested by trypsinization. The cell suspensions are fixed by adding 2 parts ice cold ethanol 100% while vortexing. Then the samples are stored for>2 h at −20° C. Subsequently the cells are washed with PBS once and resuspended in 250 μl PBS containing 50 μg/ml PI (Calbiochem # 537059), then the samples are incubated at 37° C. for 30 min and subsequently analyzed on a FACSCalibur™ monitoring linear PI fluorescence activity on FL2. The readout allows the detection of a possible direct or indirect influence of the tested compounds on the cell cycle. The following events can occur: a) Generation of a subG1 peak indicative for DNA fragmentation, b) increase of the cell population arrested in G2M phase. Both events are scored by 1 for weak and 2 for strong occurrence. 0 indicates no occurrence at all.
# HeLa [5] = assay: PI staining for cell cycle distribution; format: cell-based, human; design: key: 0: no effect; 1: weak effect; 2: strong effect; details: HeLa 10μM, 48 h
# Description: as §2
# Jily = assay: MTS proliferation assay; format: cell-based; details: 72 h
# How it was run: as §1
# [6] = conc 0.1 (final concentrations in μM), 24 h or 48 h incubation
# [7] = conc 0.3 (final concentrations in μM), 24 h or 48 h incubation
# [8] = conc 1 (final concentrations in μM), 24 h or 48 h incubation
# [9] = conc 3 (final concentrations in μM), 24 h or 48 h incubation
compound,measurement,setting,value
Cc1ccc(S(=O)(=O)n2cc(-c3cncc(C(N)=O)c3)cc2-c2cccs2)cc1 [Example 53],"Hoechst 33342 nuclear staining score, H460",[1]; [6],0
same,"Hoechst 33342 nuclear staining score, H460",[1]; [7],0
same,"Hoechst 33342 nuclear staining score, H460",[1]; [8],0
same,"Hoechst 33342 nuclear staining score, H460",[1]; [9],0
same,"Hoechst 33342 nuclear staining score, HeLa",[1]; [6],0
same,"Hoechst 33342 nuclear staining score, HeLa",[1]; [7],0
same,"Hoechst 33342 nuclear staining score, HeLa",[1]; [8],0
same,"Hoechst 33342 nuclear staining score, HeLa",[1]; [9],0
same,"Hoechst 33342 nuclear staining score, Jily",[1]; [6],0
same,"Hoechst 33342 nuclear staining score, Jily",[1]; [7],0
same,"Hoechst 33342 nuclear staining score, Jily",[1]; [8],0
same,"Hoechst 33342 nuclear staining score, Jily",[1]; [9],0
same,"Hoechst 33342 nuclear staining score, Jurkat",[1]; [6],0
same,"Hoechst 33342 nuclear staining score, Jurkat",[1]; [7],0
same,"Hoechst 33342 nuclear staining score, Jurkat",[1]; [8],0
same,"Hoechst 33342 nuclear staining score, Jurkat",[1]; [9],0
same,"Hoechst 33342 nuclear staining score, MRC5",[1]; [6],0
same,"Hoechst 33342 nuclear staining score, MRC5",[1]; [7],0
same,"Hoechst 33342 nuclear staining score, MRC5",[1]; [8],0
same,"Hoechst 33342 nuclear staining score, MRC5",[1]; [9],0
same,"Hoechst 33342 nuclear staining score, PBLs",[1]; [6],0
same,"Hoechst 33342 nuclear staining score, PBLs",[1]; [7],0
same,"Hoechst 33342 nuclear staining score, PBLs",[1]; [8],0
same,"Hoechst 33342 nuclear staining score, PBLs",[1]; [9],0
same,IC50,MRC5,> 1000 nM
same,IC50,Jurkat [2],< 1000 nM
same,IC50,HeLa [3],> 1000 nM
same,"PI staining for cell cycle distribution, G2M",Jurkat [4],1
same,"PI staining for cell cycle distribution, subG1",Jurkat [4],0
same,"PI staining for cell cycle distribution, G2M",HeLa [5],2
same,"PI staining for cell cycle distribution, subG1",HeLa [5],0
"p-(1-[p-Toluenesulfonyl]-2-[3,4,5-trimethoxyphenyl]-4-pyrrolyl)-benzamide [Example 6]",IC50,MRC5,< 1000 nM
same,IC50,Jurkat [2],< 200 nM
same,IC50,HeLa [3],< 1000 nM
same,"PI staining for cell cycle distribution, G2M",Jurkat [4],1
same,"PI staining for cell cycle distribution, subG1",Jurkat [4],0
same,"PI staining for cell cycle distribution, G2M",HeLa [5],2
same,"PI staining for cell cycle distribution, subG1",HeLa [5],0
COc1ccc(S(=O)(=O)n2cc(CNc3ccc(N4CCOCC4)cc3)cc2-c2cc(OC)ccc2OC)cc1 [Example 95],"Hoechst 33342 nuclear staining score, H460",[1]; conc 0.1,0
same,"Hoechst 33342 nuclear staining score, H460",[1]; conc 0.3,0
same,"Hoechst 33342 nuclear staining score, H460",[1]; conc 1,0
same,"Hoechst 33342 nuclear staining score, H460",[1]; conc 3,2 (strong activity comprising more than 50% of the cells)
same,"Hoechst 33342 nuclear staining score, HeLa",[1]; conc 0.1,0
same,"Hoechst 33342 nuclear staining score, HeLa",[1]; conc 0.3,0
same,"Hoechst 33342 nuclear staining score, HeLa",[1]; conc 1,0
same,"Hoechst 33342 nuclear staining score, HeLa",[1]; conc 3,2 (strong activity comprising more than 50% of the cells)
same,"Hoechst 33342 nuclear staining score, Jily",[1]; conc 0.1,0
same,"Hoechst 33342 nuclear staining score, Jily",[1]; conc 0.3,0
same,"Hoechst 33342 nuclear staining score, Jily",[1]; conc 1,0
same,"Hoechst 33342 nuclear staining score, Jily",[1]; conc 3,2 (strong activity comprising more than 50% of the cells)
same,"Hoechst 33342 nuclear staining score, Jurkat",[1]; conc 0.1,0
same,"Hoechst 33342 nuclear staining score, Jurkat",[1]; conc 0.3,0
same,"Hoechst 33342 nuclear staining score, Jurkat",[1]; conc 1,0
same,"Hoechst 33342 nuclear staining score, Jurkat",[1]; conc 3,2 (strong activity comprising more than 50% of the cells)
same,"Hoechst 33342 nuclear staining score, MRC5",[1]; conc 0.1,0
same,"Hoechst 33342 nuclear staining score, MRC5",[1]; conc 0.3,0
same,"Hoechst 33342 nuclear staining score, MRC5",[1]; conc 1,0
same,"Hoechst 33342 nuclear staining score, MRC5",[1]; conc 3,0
same,"Hoechst 33342 nuclear staining score, PBLs",[1]; conc 0.1,0
same,"Hoechst 33342 nuclear staining score, PBLs",[1]; conc 0.3,0
same,"Hoechst 33342 nuclear staining score, PBLs",[1]; conc 1,0
same,"Hoechst 33342 nuclear staining score, PBLs",[1]; conc 3,0
same,IC50,Jily,> 1000 nM
same,IC50,MRC5,> 1000 nM
same,IC50,Jurkat [2],> 1000 nM
same,IC50,HeLa [3],> 1000 nM
COc1ccc(S(=O)(=O)n2cc(-c3cncc(C(N)=O)c3)cc2-c2cc(OC)ccc2OC)cc1 [Example 105],"Hoechst 33342 nuclear staining score, H460",[1]; conc 0.1,0
same,"Hoechst 33342 nuclear staining score, H460",[1]; conc 0.3,0
same,"Hoechst 33342 nuclear staining score, H460",[1]; conc 1,0
same,"Hoechst 33342 nuclear staining score, H460",[1]; conc 3,2 (strong activity comprising more than 50% of the cells)
same,"Hoechst 33342 nuclear staining score, HeLa",[1]; conc 0.1,0
same,"Hoechst 33342 nuclear staining score, HeLa",[1]; conc 0.3,0
same,"Hoechst 33342 nuclear staining score, HeLa",[1]; conc 1,0
same,"Hoechst 33342 nuclear staining score, HeLa",[1]; conc 3,2 (strong activity comprising more than 50% of the cells)
same,"Hoechst 33342 nuclear staining score, Jily",[1]; conc 0.1,0
same,"Hoechst 33342 nuclear staining score, Jily",[1]; conc 0.3,0
same,"Hoechst 33342 nuclear staining score, Jily",[1]; conc 1,2 (strong activity comprising more than 50% of the cells)
same,"Hoechst 33342 nuclear staining score, Jily",[1]; conc 3,2 (strong activity comprising more than 50% of the cells)
same,"Hoechst 33342 nuclear staining score, Jurkat",[1]; conc 0.1,0
same,"Hoechst 33342 nuclear staining score, Jurkat",[1]; conc 0.3,0
same,"Hoechst 33342 nuclear staining score, Jurkat",[1]; conc 1,2 (strong activity comprising more than 50% of the cells)
same,"Hoechst 33342 nuclear staining score, Jurkat",[1]; conc 3,2 (strong activity comprising more than 50% of the cells)
same,"Hoechst 33342 nuclear staining score, MRC5",[1]; conc 0.1,0
same,"Hoechst 33342 nuclear staining score, MRC5",[1]; conc 0.3,0
same,"Hoechst 33342 nuclear staining score, MRC5",[1]; conc 1,0
same,"Hoechst 33342 nuclear staining score, MRC5",[1]; conc 3,1 (weak activity comprising less than 50% of the cells)
same,"Hoechst 33342 nuclear staining score, PBLs",[1]; conc 0.1,0
same,"Hoechst 33342 nuclear staining score, PBLs",[1]; conc 0.3,0
same,"Hoechst 33342 nuclear staining score, PBLs",[1]; conc 1,0
same,"Hoechst 33342 nuclear staining score, PBLs",[1]; conc 3,0
same,IC50,Jily,< 1000 nM
same,IC50,MRC5,> 1000 nM
same,IC50,Jurkat [2],< 1000 nM
same,IC50,HeLa [3],> 1000 nM
COc1ccc(S(=O)(=O)n2cc(-c3ccc(N)nc3)cc2-c2ccc(OC)cc2OC)cc1 [Example 102],"Hoechst 33342 nuclear staining score, H460",[1]; conc 0.1,0
same,"Hoechst 33342 nuclear staining score, H460",[1]; conc 0.3,0
same,"Hoechst 33342 nuclear staining score, H460",[1]; conc 1,1 (weak activity comprising less than 50% of the cells)
same,"Hoechst 33342 nuclear staining score, H460",[1]; conc 3,2 (strong activity comprising more than 50% of the cells)
same,"Hoechst 33342 nuclear staining score, HeLa",[1]; conc 0.1,0
same,"Hoechst 33342 nuclear staining score, HeLa",[1]; conc 0.3,0
same,"Hoechst 33342 nuclear staining score, HeLa",[1]; conc 1,1 (weak activity comprising less than 50% of the cells)
same,"Hoechst 33342 nuclear staining score, HeLa",[1]; conc 3,2 (strong activity comprising more than 50% of the cells)
same,"Hoechst 33342 nuclear staining score, Jily",[1]; conc 0.1,0
same,"Hoechst 33342 nuclear staining score, Jily",[1]; conc 0.3,0
same,"Hoechst 33342 nuclear staining score, Jily",[1]; conc 1,2 (strong activity comprising more than 50% of the cells)
same,"Hoechst 33342 nuclear staining score, Jily",[1]; conc 3,2 (strong activity comprising more than 50% of the cells)
same,"Hoechst 33342 nuclear staining score, Jurkat",[1]; conc 0.1,0
same,"Hoechst 33342 nuclear staining score, Jurkat",[1]; conc 0.3,0
same,"Hoechst 33342 nuclear staining score, Jurkat",[1]; conc 1,2 (strong activity comprising more than 50% of the cells)
same,"Hoechst 33342 nuclear staining score, Jurkat",[1]; conc 3,2 (strong activity comprising more than 50% of the cells)
same,"Hoechst 33342 nuclear staining score, MRC5",[1]; conc 0.1,0
same,"Hoechst 33342 nuclear staining score, MRC5",[1]; conc 0.3,0
same,"Hoechst 33342 nuclear staining score, MRC5",[1]; conc 1,0
same,"Hoechst 33342 nuclear staining score, MRC5",[1]; conc 3,2 (strong activity comprising more than 50% of the cells)
same,"Hoechst 33342 nuclear staining score, PBLs",[1]; conc 0.1,0
same,"Hoechst 33342 nuclear staining score, PBLs",[1]; conc 0.3,0
same,"Hoechst 33342 nuclear staining score, PBLs",[1]; conc 1,0
same,"Hoechst 33342 nuclear staining score, PBLs",[1]; conc 3,0
same,IC50,Jily,< 1000 nM
same,IC50,MRC5,> 1000 nM
same,IC50,Jurkat [2],< 1000 nM
same,IC50,HeLa [3],> 1000 nM
